Measurements reported in PMC7321402, “Insights on the Extraction Performance of Alkanediols and Glycerol: Using Juglans regia L. Leaves as a Source of Bioactive Compounds” (Molecules, 2020).
Values after ≈ are worked out from the molar mass of the structure shown. Values joined by “and” are separate entries in the source; they are usually repeats but may differ in a detail not shown here. Equal values may be shown once. Read-outs that look alike come from different tables or passages of the source. Blank lines part the entries; values can stand above or below the compound they belong to.

Tests used:
[1] = tested on: non-tumor PLP2 cells (porcine liver primary cells); assay: Sulforhodamine B growth inhibition assay, PLP2 (hepatotoxicity)
Experimental: (§1) J. regia leaf extracts (30 mg/mL) and solvents were studied regarding their inhibitory growth activity of the HeLa (cervical carcinoma) cell line and the non-tumor PLP2 cells (porcine liver primary cells) by using a sulforhodamine B assay. The extracts were diluted to obtain a stock solution of 10 mg/mL, and the concentration of the working solutions ranged from 500 to 7.8 µg/mL, while the concentration of the solvents ranged from 4% to 0.0156%. Ellipticine was used as positive control. The experimental protocol related to the cell cultures was previously described by Barros et al. and Abreu et al..

[2] = tested on: HeLa (cervical carcinoma) cell line; assay: Sulforhodamine B growth inhibition assay, HeLa; format: cell-based, human
Experimental: as §1

[3] = Sulforhodamine B growth inhibition assay, PLP2 (hepatotoxicity); conditions: pig, PLP2 cells (porcine liver primary cells, non-tumor)
Experimental: as §1

[4] = solvent without extract, range 4% to 0.0156%, mean ± SD

SMILES: OCCO [1,2-ethanediol]
GI50 PLP2, Solvent [1]: >4 %, v/v | GI50 HeLa, Solvent [2]: >4 %, v/v

SMILES: CCCCC(O)CO (stereo not shown) [1,2-hexanediol]
GI50 PLP2, Solvent [1, 4]: 0.285 ± 0.005 %, v/v and 0.285 ± 0.005c %, v/v | GI50 HeLa, Solvent [2, 4]: 0.36 ± 0.02 %, v/v and 0.36 ± 0.02c %, v/v

GI50 HeLa, Solvent [2, 4]: 0.63 ± 0.04a %, v/v
SMILES: CCCC(O)CO (stereo not shown) [1,2-pentanediol]
GI50 PLP2, Solvent [1, 4]: 0.89 ± 0.04a %, v/v

SMILES: CC(O)CO (stereo not shown) [1,2-propanediol]
GI50 PLP2, Solvent [1, 4]: >4 %, v/v | GI50 HeLa, Solvent [2, 4]: >4 %, v/v

SMILES: CC(O)CCO (stereo not shown) [1,3-butanediol]
GI50 PLP2, Solvent [1, 4]: >4 %, v/v | GI50 HeLa, Solvent [2, 4]: >4 %, v/v

SMILES: OCCCO [1,3-propanediol]
GI50 PLP2, Solvent [1, 4]: >4 %, v/v | GI50 HeLa, Solvent [2, 4]: >4 %, v/v

GI50 HeLa, Solvent [2, 4]: 0.49 ± 0.02b %, v/v
SMILES: OCCCCCO [1,5-pentanediol]
GI50 PLP2, Solvent ([1]; pig): 0.59 ± 0.02b %, v/v

SMILES: Cc1c2ccncc2c(C)c2c1[nH]c1ccccc12 [Ellipticine, reference compound]
GI50 [3]: 2.3 µg/mL (≈ 9.34 µM) | GI50 ([2]; Homo sapiens, HeLa, positive control, mean ± SD): 1 ± 0.1 µg/mL (≈ 4.06 µM)

SMILES: CCO [Ethanol, ethanol]
GI50 PLP2, Solvent [1]: >4 %, v/v | GI50 HeLa, Solvent [2, 4]: >4 %, v/v

GI50 HeLa, Solvent [2, 4]: >4 %, v/v
SMILES: OCC(O)CO [Glycerol, glycerol]
GI50 PLP2, Solvent ([1]; pig): >4 %, v/v

GI50 HeLa, Solvent [2, 4]: >4 %, v/v
SMILES: O [Water, water]
GI50 PLP2, Solvent [1]: >4 %, v/v
